According to paper PMC6737244, “Cathelicidin Peptides Restrict Bacterial Growth via Membrane Perturbation and Induction of Reactive Oxygen Species” (mBio, 2019):
Ends that are not written are not given here.

Experiments:
E. cloacae = assay: Growth of cultures (OD600) with sublethal peptide; conditions: nanomolar (30 nM) peptide, means of four data sets
V. cholerae [1] = assay: Growth of cultures (OD600) with sublethal peptide; conditions: nanomolar (30 nM) peptide, means of four data sets
E. coli = assay: Growth of cultures (OD600) with sublethal peptide; conditions: nanomolar (30 nM) peptide, means of four data sets
V. cholerae [2] = assay: SYTOX Green membrane damage, single-cell imaging; type: cell-based, Vibrio cholerae; conditions: for Number of fluorescent cells: V. cholerae, 25, 50 or 100 nM peptide (Fig. S4; legend says SYTOX Green)
Protocol: To better understand the membrane blebbing event, V. cholerae was treated with B22 in the presence of SYTOX Green and imaged on agarose pads to stabilize cells with compromised envelopes. SYTOX Green is a fluorescent nucleic acid stain that is impermeant to live cells and is used to distinguish dead or dying cells in a population ([17]). Cells were treated with a sublethal (1 μM) concentration of B22 in order to visualize physiological changes in susceptible and unaffected cells simultaneously. Time-lapse phase-contrast imaging was used to monitor tip-to-tip cell length and membrane integrity.
SYTOX Green (Invitrogen, Carlsbad, CA, USA) uptake was used to monitor the effect of the AMPs on bacterial membranes. Mid-log cells were resuspended in CAMHB to 1 × 10^6 CFU/ml and seeded into microfluidic chambers as described above. The cells were then flushed with medium containing 0.1 μM SYTOX Green for 5 min. The same medium was used for control cells, while the medium for treatment samples also included AMP at the indicated concentration. Fluorescence was detected by microscopy as described earlier using the GFP filter set.

S. aureus [3] = assay: CellROX ROS production, imaging; type: cell-based, Staphylococcus aureus; conditions: for CellROX oxidative signal, parental strain: S. aureus WT; for CellROX oxidative signal, parental strain / CellROX oxidative signal, sodA or sodM null mutants: 100 nM, 30 min; for CellROX oxidative signal, sodA or sodM null mutants: S. aureus sodA or sodM
Source text: (§1) The growth rate of the sodA mutant in the absence of peptide was lower than that of the wild type (WT), underscoring the importance of effectively controlling O2^− accumulation.

S. aureus [4] = assay: Growth of cultures (OD600) with sublethal peptide; type: cell-based, Staphylococcus aureus; conditions: for Effect on growth of S. aureus cultures: 30 nM peptide, CAMHB, OD600
Protocol: To examine this further, we monitored the growth of S. aureus cultures after the addition of 30 nM B22 or B22a. This concentration is in the biologically relevant range of peptide that is produced by mammals ([13]). […] Cell growth recovered at later time points (data not shown).

E. faecalis = assay: CellROX ROS production, imaging; type: cell-based, Enterococcus faecalis; conditions: 500 nM, 2.5 μM CellROX
Source text: as §1

V. cholerae [5] = assay: Single-cell real-time phase-contrast imaging in microfluidic chambers; type: cell-based, Vibrio cholerae; conditions: 2 μM peptide, continuous flow
Protocol: To better understand the antimicrobial activity of the peptides, we developed a single-cell, real-time imaging assay to monitor the disruption of V. cholerae cells. Bacteria were seeded into microfluidic chambers and grown under continuous flow before imaging by phase-contrast microscopy. Untreated V. cholerae cells retained their characteristic comma shape, cell length (1 by 2 μm), and membrane integrity (Fig. S2). Conversely, cells treated with 2 μM B22 (or B22a) began losing their shape and were noticeably shorter within 30 s (Fig. S2).
Imaging of individual cells was conducted using the CellAsic microfluidic perfusion system (ONIX) with integrated temperature controller and B04A bacterial microfluidic plates (EMD Millipore, Billerica, MA). The CellAsic ONIX FG software (v 5.0.2.0) was used to control flow rate and deliver fresh medium with or without antimicrobial peptide (AMP). The chambers were loaded by perfusion of 50 μl of a 10^6 cells/ml bacterial suspension at 2 lb/in^2 for 15 s to prime the cells followed by 4 lb/in^2 for 15 s to trap the cells. The chamber was then rinsed at 1 lb/in^2 for 30 s followed by 5 lb/in^2 for 5 min. To quickly switch solutions, medium was perfused at 10 lb/in^2 for 10 s, and then flow was reduced to 2 lb/in^2 for the remainder of the imaging.

[6] = tested on: Pseudomonas aeruginosa ATCC 27853; type: cell-based
Protocol: (§2) MICs were determined by using the broth microdilution method based on the general recommendations of the Clinical and Laboratory Standards Institute (CLSI). Bacteria were grown in CAMHB overnight. They were then diluted into fresh medium the following morning and grown to early log phase. The cultures were then diluted to approximately 5 × 10^5 CFU ml^−1, and 100 μl was added to sterile 96-well polypropylene microtiter plates (Corning, NY, USA) preloaded with twofold dilutions of antimicrobial peptides. […] All MIC assays were determined from at least three independent assays.

Escherichia coli UTI89 = type: cell-based
Protocol: as §2

[7] = tested on: Escherichia coli ATCC 35218; type: cell-based
Protocol: as §2

[8] = tested on: Klebsiella pneumoniae 88 (NDM1+); type: cell-based
Protocol: as §2

[9] = tested on: Enterobacter cloacae OC4092; type: cell-based
Protocol: as §2

Escherichia coli OC4075 = type: cell-based
Protocol: as §2

[10] = tested on: Pseudomonas aeruginosa OC4083; type: cell-based
Protocol: as §2

[11] = tested on: Escherichia coli ATCC 25922; type: cell-based
Protocol: as §2

[12] = tested on: Pseudomonas aeruginosa PAO1; type: cell-based
Protocol: as §2

[13] = tested on: Klebsiella pneumoniae OC8893; type: cell-based
Protocol: as §2

Escherichia coli MC4100a = type: cell-based
Protocol: as §2

Klebsiella pneumoniae C2 = type: cell-based
Protocol: as §2

[14] = tested on: Klebsiella pneumoniae OC4110; type: cell-based
Protocol: as §2

[15] = tested on: Klebsiella pneumoniae ATCC 700603; type: cell-based
Protocol: as §2

[16] = tested on: Enterobacter cloacae OC4080; type: cell-based
Protocol: as §2

[17] = tested on: Klebsiella pneumoniae 262 (NDM1+); type: cell-based
Protocol: as §2

V. cholerae biofilms = assay: Established biofilm in flow cell, LIVE/DEAD staining

FRKKLKKLFKKLSPVIPLLKLG [B22]
Effect on growth rate (E. cloacae): reproducibly reduced the growth rate
Effect on growth rate (V. cholerae [1]): reproducibly reduced the growth rate
Effect on growth rate (E. coli): reproducibly reduced the growth rate
Share of population with strong cytoplasmic SYTOX Green signal (V. cholerae [2]; 1 μM (sublethal), agarose pads, SYTOX Green): approximately 35%
Decrease in cell contrast of dying cells (V. cholerae [2]; 1 μM, agarose pads, time-lapse phase contrast): > 90%
Number of fluorescent cells (V. cholerae [2]): increased
CellROX oxidative signal, parental strain (S. aureus [3]): weak signal
CellROX oxidative signal, sodA or sodM null mutants (S. aureus [3]): strong oxidative signal
CellROX oxidative signal (S. aureus [3]; S. aureus, 500 nM, 2.5 μM CellROX): fluorescent burst
Effect on growth of S. aureus cultures (S. aureus [4]): reduced the initial growth rate
Effect on growth of WT strain (S. aureus [4]; S. aureus WT, 30 nM): slowed the growth
Effect on growth of sodA mutant (S. aureus [4]; S. aureus sodA, 30 nM, compared with WT): to an even greater extent
CellROX oxidative signal (E. faecalis): fluorescent burst
Time until cells began losing shape and were noticeably shorter (V. cholerae [5]): ≤ 30 s
MIC [6]: 4 µM
MIC (Escherichia coli UTI89): 2 µM
MIC [7]: 4 µM
MIC [8]: 4 µM
MIC [9]: 4 µM
MIC (Escherichia coli OC4075): 4 µM
MIC [10]: 2 µM
MIC [11]: 2 µM
MIC [12]: 4 µM
MIC [13]: 4 µM
MIC (Escherichia coli MC4100a): 4 µM
MIC (Klebsiella pneumoniae C2): 4 µM
MIC [14]: 4 µM
MIC [15]: 2 µM
MIC [16]: 4 µM
MIC [17]: 4 µM

FRKKLKKLFKKLSPVIPLLKLG-NH2 [B22a]
Effect on growth rate (E. cloacae): reproducibly reduced the growth rate
Effect on growth rate (V. cholerae [1]): reproducibly reduced the growth rate
Effect on growth rate (E. coli): reproducibly reduced the growth rate
Number of fluorescent cells (V. cholerae [2]): increased
CellROX oxidative signal, parental strain (S. aureus [3]): weak signal
CellROX oxidative signal, sodA or sodM null mutants (S. aureus [3]): strong oxidative signal
Effect on growth of S. aureus cultures (S. aureus [4]): reduced the initial growth rate
Time until cells began losing shape and were noticeably shorter (V. cholerae [5]): ≤ 30 s
Overall biofilm biomass (V. cholerae biofilms): decreased the overall biomass by half
Cell death in biofilm (V. cholerae biofilms; at 6 h): 50%
MIC [6]: 2 µM
MIC (Escherichia coli UTI89): 2 µM
MIC [7]: 2 µM
MIC [8]: 2 µM
MIC [9]: 4 µM
MIC (Escherichia coli OC4075): 2 µM
MIC [10]: 2 µM
MIC [11]: 2 µM
MIC [12]: 2 µM
MIC [13]: 2 µM
MIC (Escherichia coli MC4100a): 4 µM
MIC (Klebsiella pneumoniae C2): 2 µM
MIC [14]: 2 µM
MIC [15]: 2 µM
MIC [16]: 4 µM
MIC [17]: 4 µM
